Test results from patent US7253177B2, “Synthesis and antimalarial activity of pyrrolo[3,2-f]quinazoline-1,3-diamine derivatives” (United States of America as Represented by the Secretary of …, priority 2004, dated 2007).
≈ marks a conversion by molar mass, not a printed value. Read-outs that look alike come from different tables or passages of the source.

What was measured:
[1] = tested on: Plasmodium falciparum RCS (Isolates from Brazil); test: In vitro antimalarial study, [3H]hypoxanthine uptake, RCS clone; format: cell-based; conditions: P. falciparum RCS clone; for IC50: Plasmodium falciparum
Protocol: (§1) B. Antimalarial Activities: (a). In Vitro Antimalarial Studies. The in vitro assays were conducted by using a modification of the semiautomated microdilution technique of Desjardins et al and Chulay et al.. Four P. falciparum malaria parasite clones, from CDC Indochina III (W-2), CDC Sierra Leone I (D-6), Southeast Asia Isolates (TM91C235) and RCS (Isolates from Brazil) were utilized in susceptibility testing. They were derived by direct visualization and micromanipulation from patient isolates. The W-2 clone is susceptible to mefloquine but resistant to chloroquine, sulfadoxine, pyrimethamine, and quinine, whereas the D-6 clone is naturally resistant to mefloquine but susceptible to chloroquine, sulfadoxine, pyrimethamine and quinine. Test compounds were initially dissolved in DMSO and diluted 400 fold in RPMI 1640 culture medium supplemented with 25 mM Hepes, 32 mM NaHCO3 and 10% Albumax I (Gibco BRL, Grand Island, N.Y.). These solutions were subsequently serially diluted two-fold with a Biomek 1000 (Beckman, Fullerton, Calif.) over 11 different concentrations. The parasites were exposed to serial dilutions of each compound for 48 hrs and incubated at 37° C. with 5% O2, 5% CO2 and 90% N2 prior to the addition of [^3H]hypoxanthine. After a further incubation of 18 hrs, parasite DNA was harvested from each microtiter well using Packard Filtermate 196 Harvester (Meriden, Conn.) onto glass filters. Uptake of [^3H]hypoxanthine was measured with a Packard Topcount Scintillation. Concentration-response data were analyzed by a non-linear regression logistic dose response model and the IC50 values (50% inhibitory concentrations) for each compound were calculated. (Table 3). (b). In Vivo Antimalarial Studies against P. berghei in mice: The in vivo efficacy of the artelinic acid analogs were determined in a modified Thompson test. This test measures the survivability of mice and parasitemia clearance following administration of drug on days 3-5 post infection. In brief, 5×10^6 P. berghei-infected erythrocytes (KBG-173 strain) were inoculated intraperitoneally to female mice that weighed 24-30 g. By day three post-infection, parasitemia ranged from 1.0-3.7%. Each drug, dissolved in 5% sodium bicarbonate, was administered PO twice daily from day 3-5 post-infection. Total doses for each drug ranged from 1.5-384 mg/kg with 8 mice included in each dosage group. The percent suppression of parasitemia in the treated mice compared to the untreated controls was determined for each test compound; the SD-50 (fifty percent suppression dose) and SD-90 were determined from a non-linear regression logistic dose response fit at day 6 parasitemia data. Survival of mice to day 60 post-infection was considered a cure (C). Compounds were considered active (A) when the survival time of the treated mice was greater than twice the control mice, i.e., 12-14 day (Table 4-5). (c). Sporozoite Induced Test Each compound is ground with a mortar & pestle and suspended in 0.5% hydroxyethylcellulose—0.1% Tween 80 for compounds to be administered PO and those given SC are suspended in peanut oil. Each compound is prepared at 3 different dose levels as requested by WRAIR. Compounds are administered either PO or SC to mice once 4 hr before inoculation of sporozoites. Four-week-old male CD-1 mice, purchased from Charles River and weighing 16-17 g, are placed 5 per cage and allowed to acclimate for 4 days before being treated and then inoculated with sporozoites. They are fed food and water ad-lib and maintained at 76° F. with 12 hr light and 12 hr darkness. The cages and water bottles are changed biweekly. The mice are weighed on Days 0, 3 and 6 then biweekly when blood films are taken. Plasmodium yoelii (17×) is used to infect mice that will be used to infect the mosquitoes. Mice are given a single dose of test compound 4 hr before being inoculated intraperitoneally with 2.5×10^5 sporozoites of Plasmodium yoelii on Day 0. […]

[2] = tested on: Plasmodium falciparum W-2 clone (CDC Indochina III); test: In vitro antimalarial study, [3H]hypoxanthine uptake, W-2 clone; format: cell-based; conditions: for IC50: Plasmodium falciparum, read-out: IC50 W-2; for IC50 W-2: P. falciparum W-2 clone
Protocol: as §1

[3] = tested on: Plasmodium falciparum D-6 clone (CDC Sierra Leone I); test: In vitro antimalarial study, [3H]hypoxanthine uptake, D-6 clone; format: cell-based; conditions: for IC50: Plasmodium falciparum, read-out: IC50 D-6; for IC50 D-6: P. falciparum D-6 clone
Protocol: as §1

[4] = tested on: Plasmodium falciparum TM91C235 (Southeast Asia Isolates); test: In vitro antimalarial study, [3H]hypoxanthine uptake, TM91C235 clone; format: cell-based; conditions: for IC50: Plasmodium falciparum, read-out: IC50 TM91C235; for IC50 TM91C235: P. falciparum TM91C235 clone
Protocol: as §1

Plasmodium berghei = test: Antimalarial activity against Plasmodium berghei in mice by subcutaneous injection; format: in vivo
[5] = tested on: Plasmodium berghei (KBG-173 strain); format: in vivo; conditions: mice, oral
Protocol: as §1

[6] = tested on: Plasmodium yoelii (17x) sporozoites; test: Sporozoite induced test in mice; format: in vivo; conditions: P. yoelii, mice, oral
Protocol: as §1, with “mosquitoes. […] Whole body weights” for “mosquitoes. Mice”, “are taken” for “are given a single dose of test compound 4 hr before being inoculated intraperitoneally with 2.5×10^5 sporozoites of Plasmodium yoelii”, “Day 0 and Day 6 then twice a week for 31 days. A blood film is taken on Day 5 and then twice a week for 31 days. Mice loosing >20% of their body weight will be sacrificed.” for “Day 0.”

CC(=O)N(C(C)=O)c1nc(N)nc2ccc3c(ccn3Cc3ccccc3C(F)(F)F)c12 [Compound 3b]
IC50 [1]: 0.0116 ng/mL (≈ 0.0263 nM) | IC50 [2]: 0.0183 ng/mL (≈ 0.0415 nM) | IC50 [3]: 0.0101 ng/mL (≈ 0.0229 nM) | IC50 [4]: 0.0212 ng/mL (≈ 0.048 nM)

Nc1nc(N2C(=O)CCC2=O)nc2ccc3c(ccn3Cc3ccccc3C(F)(F)F)c12 [Compound 3f, 1-Amino-3-(1-pyrrolidine-2,5-dione)-7-(2-trifluoromethyl-benzyl)-7H-pyrrolo[3,2-f]quinazoline]
IC50 [2]: < 0.488 ng/mL | IC50 [3]: < 0.488 ng/mL

CC(C)(C)OC(=O)N(C(=O)OC(C)(C)C)c1nc(N(C(=O)OC(C)(C)C)C(=O)OC(C)(C)C)c2c(ccc3c2ccn3Cc2ccccc2C(F)(F)F)n1 [Compound 2j]
# Mice Alive Day 31/Total (Plasmodium berghei; 2.5 mg/kg/day): 2/7 | # Mice Alive Day 31/Total (Plasmodium berghei; 10 mg/kg/day): 6/7 | # Mice Dead/Day Died (Plasmodium berghei; 10 mg/kg/day): 1/24 | # Mice Alive Day 31/Total (Plasmodium berghei; 20 mg/kg/day): 7/7 | # Mice Dead/Day Died (Plasmodium berghei; 20 mg/kg/day): none | # Mice Alive Day 31/Total (Plasmodium berghei; 40 mg/kg/day): 5/7 | # Mice Dead/Day Died (Plasmodium berghei; 40 mg/kg/day): 2/19

O=C1CCC(=O)N1c1nc(N2C(=O)CCC2=O)c2c(ccc3c2ccn3Cc2ccccc2C(F)(F)F)n1 [Compound 3g, 1,3-Bis-(1-pyrrolidine-2,5-dione)-7-(2-trifluoromethyl)benzyl-7H-pyrrolo[3,2-f]quinazoline]
# Mice Alive Day 30/Total ([5]; 80 mg/kg/day): 2/5 | # Mice Alive Day 30/Total ([5]; 40-10 mg/kg/day): 0/5 | # Mice Dead/Day Died ([5]; 40-10 mg/kg/day): deaths in each group | IC50 RCS [1]: 0.2571 ng/mL (≈ 0.493 nM) | IC50 W-2 [2]: 0.1284 ng/mL (≈ 0.246 nM) | IC50 D-6 [3]: 0.1284 ng/mL (≈ 0.246 nM) | IC50 TM91C235 [4]: 0.4021 ng/mL (≈ 0.771 nM)

CCOC(=O)Nc1nc(N)nc2ccc3c(ccn3Cc3ccccc3C(F)(F)F)c12 [Compound 2a]
# Mice Dead/Day Died ([5]; 40-2.5 mg/kg/day): Death in each dose | IC50 RCS [1]: >250 ng/mL | IC50 W-2 [2]: >250 ng/mL | IC50 D-6 [3]: 20.709 ng/mL (≈ 48.2 nM) | # Mice Alive Day 31/Total (Plasmodium berghei; 40 mg/kg/day): 5/7 | # Mice Dead/Day Died (Plasmodium berghei; 40 mg/kg/day): 2/17 | # Mice Alive Day 31/Total (Plasmodium berghei; 20-2.5 mg/kg/day): 7/7 | # Mice Dead/Day Died (Plasmodium berghei; 20-2.5 mg/kg/day): none | IC50 TM91C235 [4]: >250 ng/mL

CC(C)(C)OC(=O)N(C(=O)OC(C)(C)C)c1nc(N)nc2ccc3c(ccn3Cc3ccccc3C(F)(F)F)c12 [Compound 2h]
# Mice Alive Day 30/Total ([5]; 1.25 mg/kg/day): 2/5 | # Mice Alive Day 30/Total ([5]; 80-2.5 mg/kg/day): 5/5 | # Mice Dead/Day Died ([5]; 80-2.5 mg/kg/day): None | IC50 RCS [1]: 5.2370 ng/mL (≈ 9.39 nM) | IC50 W-2 [2]: 3.6678 ng/mL (≈ 6.58 nM) | IC50 D-6 [3]: 0.2549 ng/mL (≈ 0.457 nM) | # Mice Alive Day 31/Total (Plasmodium berghei; 40-2.5 mg/kg/day): 7/7 | # Mice Dead/Day Died (Plasmodium berghei; 40-2.5 mg/kg/day): none | IC50 TM91C235 [4]: 26.366 ng/mL (≈ 47.3 nM)

CCOC(=O)Nc1nc(N(C(=O)OCC)C(=O)OCC)c2c(ccc3c2ccn3Cc2ccccc2C(F)(F)F)n1 [Compound 2c]
# Mice Alive Day 30/Total ([5]; 80-1.25 mg/kg/day): 5/5 | # Mice Dead/Day Died ([5]; 80-1.25 mg/kg/day): None | IC50 RCS [1]: >250 ng/mL | IC50 W-2 [2]: >250 ng/mL | IC50 D-6 [3]: >250 ng/mL | IC50 TM91C235 [4]: >250 ng/mL

CC(=O)Nc1nc(N(C(C)=O)C(C)=O)c2c(ccc3c2ccn3Cc2ccccc2C(F)(F)F)n1 [Compound 3d]
# Mice Dead/Day Died ([5]; 10-0.625 mg/kg/day): death in each group | # Mice Alive Day 30/Total ([5]; 220-40 mg/kg/day): 5/5 | # Mice Dead/Day Died ([5]; 220-40 mg/kg/day): None

CC(C)(C)OC(=O)Nc1nc(N(C(=O)OC(C)(C)C)C(=O)OC(C)(C)C)c2c(ccc3c2ccn3Cc2ccccc2C(F)(F)F)n1 [Compound 2i]
IC50 RCS [1]: 26.380 ng/mL (≈ 40.1 nM) | IC50 W-2 [2]: 33.569 ng/mL (≈ 51 nM) | IC50 D-6 [3]: 1.9252 ng/mL (≈ 2.93 nM) | # Mice Alive Day 31/Total (Plasmodium berghei; 40-2.5 mg/kg/day): 7/7 | # Mice Dead/Day Died (Plasmodium berghei; 40-2.5 mg/kg/day): none | IC50 TM91C235 [4]: 97.708 ng/mL (≈ 149 nM)

COc1cc(C)c2c(Oc3cccc(C(F)(F)F)c3)c(OC)cc(NC(C)CCCN)c2n1 (stereo not drawn) [Tefenoquine, reference compound]
Number of Mice Cured ([6]; 1.25 mg/kg): 2/5 | Number of Mice Cured ([6]; 2.5 mg/kg): 4/5 | Number of Mice Cured ([6]; 5 mg/kg): 5/5 | Number of Mice Cured ([6]; 10 mg/kg): 5/5

CC(=O)Nc1nc(N)nc2ccc3c(ccn3Cc3ccccc3C(F)(F)F)c12 [Compound 3a]
IC50 [1]: 0.0096 ng/mL (≈ 0.024 nM) | IC50 [2]: 0.0186 ng/mL (≈ 0.0466 nM) | IC50 [3]: 0.0097 ng/mL (≈ 0.0243 nM) | IC50 [4]: 0.0206 ng/mL (≈ 0.0516 nM)

Nc1nc(O)c2c(ccc3c2ccn3Cc2ccccc2C(F)(F)F)n1 [Compound 4, 1-hydroxy-3-amino-7-(2-trifluromethyl)benzyl-7H-pyrrolo [3,2-f]quinazoline]
oral dose range giving 100% cure against P. berghei ([5]; Thompson test): 80 to 180 mg/kg | # Mice Alive Day 30/Total ([5]; 320 mg/kg/day): 1/5 | # Mice Dead/Day Died ([5]; 40-10 mg/kg/day): deaths in each group | # Mice Alive Day 30/Total ([5]; 160-80 mg/kg/day): 5/5 | # Mice Dead/Day Died ([5]; 160-80 mg/kg/day): none | IC50 [2]: 53.9 ng/mL (≈ 150 nM) | IC50 [3]: 7.24 ng/mL (≈ 20.2 nM) | IC50 [4]: 83.4 ng/mL (≈ 233 nM)
